These are literature values, as cited in patent US6610313B2, “Lysophospholipids composition with water solubility” (Doosan Corporation, priority 2001, dated 2003).

The test system of series [1] is phospholipase D. The conditions noted are these: Proc. Natl. Acad. Sci. USA, Vol.94, pp12717-12721.
For series [2], the system named is tomato. The conditions noted are these: U.S. Pat. Nos. 5,220,341 and 5,126,155.
The conditions of series [3]: LPE alone.

lysophosphatidylcholine [LPC]: the “inhibition effect of phospholipase D” value in series [1] was “only a slight activity”.

Regarding lysophosphatidylethanolamine [LPE], in series [2], the “aging of leaves and fruits of tomato” value was “inhibits the aging of leaves and fruits of tomato”; the “storage time of tomato after harvesting” value is recorded as “extends the storage time of tomato after harvesting”. For the same substance, in series [1], the “inhibition effect of phospholipase D” value is recorded as “most excellent”. Also, in series [3], the “water solubility of LPE itself” value is reported as “not water-soluble”.

With “lysophosphatidylglycerol [LPG, reference compound]”, the “inhibition effect of phospholipase D” value in series [1] is recorded as “opposite”.

Turning to “lysophosphatidylic acid [LPA, reference compound]”, in series [1], the “inhibition effect of phospholipase D” value is given as “cannot inhibit”.

Regarding lysophosphatidylinositol [LPI], in series [1], the “inhibition effect of phospholipase D” value is on record as “gradually decreases”.

For the substance “lysophosphatidylserine [LPS, reference compound]”, in series [1], the “inhibition effect of phospholipase D” value is on record as “opposite”.
